Source: publication PMC9477487, “Multitarget drugs as potential therapeutic agents for alzheimer’s disease. A new family of 5-substituted indazole derivatives as cholinergic and BACE1 inhibitors” (Journal of Enzyme Inhibition and Medicinal Chemistry, 2022)

Tests used:
[1] = test system: SH-SY5Y human neuroblastoma cells; test: Amyloid-beta peptide neurotoxicity, neuroprotection in SH-SY5Y cells (MTT); assay type: cell-based; conditions: 24 h
Experimental: SH-SY5Y human neuroblastoma cells were obtained from American Type Culture Collection. Cells were maintained at 37 °C in a 5% CO2 humidified atmosphere in DMEM-Glutamax supplemented with heat-inactivated 10% foetal bovine serum and 1% penicillin/streptomycin. All experiments with Aβ1–42 used DMEM-Glutamax without phenol in the media.
The compounds were dissolved in 100% dimethyl sulphoxide (DMSO) as a 10 mM stock and diluted with culture medium to final concentrations. Aβ1–42 powder (AnaSpec, Inc., San Jose, CA) was dissolved in acetic acid (0.1 M) obtaining a 2 μg/μL stock. Then Aβ1-42 was oligomerised in no phenol red DMEM for 24 h at 37 °C. The final concentration in cells cultures was 5 μM. All dilutions of stock were prepared fresh before addition to the culture medium.
SH-SY5Y cells were treated with 5 μM Aβ1-42 for 24 h and pre-treated or not for 1 h with increasing concentrations of compounds. After treatment, cultures were processed for a cell viability assay using MTT assay.
(§1) Cell viability was measured using the 3-(4,5-Dimethylthiazol-2-yl)-2,5-diphenyltetrazolium bromide (MTT) assay, based on the ability of viable cells to reduce yellow MTT to blue formazan. Briefly, cells cultured in 96-well plates and treated with the indicated compounds for 16 h were incubated with MTT (0.5 mg/ml, 4 h) and subsequently solubilised in DMSO. The extent of reduction of MTT was quantified by absorbance measurement at 595 nm according to the manufacturer’s protocol.

BACE1 = molecular target: T1, BACE1 (Homo sapiens, UniProt P56817); test: BACE1 enzymatic FRET assay; assay type: biochemical; conditions: pH 4.5, mean ± SEM
T1 construct: purchased Invitrogen
Experimental: The BACE1 ([…]) assay was carried out according to the manufacturer’s described protocol which is available from Invitrogen[36].
Briefly, BACE1 in vitro assays were carried out using fluorescence resonance energy transfer (FRET). An APP-based peptide substrate (rhodamine-EVNLDAEFK-quencher, Km of 20 μM) carrying the Swedish mutation and containing rhodamine as a fluorescence donor and a quencher acceptor at each end was used. The intact substrate is weakly fluorescent and becomes highly fluorescent upon enzymatic cleavage. The assays were conducted in 50 mM sodium acetate buffer, pH 4.5, at a final enzyme concentration of 1 U/mL. Inhibitor screening was performed at 10 μM. The mixture was incubated for 60 min at 25 °C under dark conditions and then stopped with 2.5 M sodium acetate. Fluorescence was measured with a FLUOstar Optima (BMG Labtechnologies GmbH, Offenburg, Germany) microplate reader at 545 nm excitation and 585 nm emission. The assay kit was validated by the manufacturer.

[2] = molecular target: T2, AChE from human erythrocytes (Homo sapiens, UniProt P22303); test: In vitro AChE inhibition assay (Ellman); assay type: biochemical; conditions: for inhibition at 10 µM: 10 µM compound, read-out: AChE percentage of inhibition at 10 µM; for IC50: mean ± SEM, 3 experiments, acetylthiocholine substrate
T2 construct: AChE from human erythrocytes (EC 3.1.1.7); purchased Sigma; host or cells: human erythrocytes (tissue-derived)
Experimental: (§2) AChE from human erythrocytes (EC 3.1.1.7) (min. 500 units/mg protein in buffered aqueous solution) and BuChE from human serum (EC 3.1.1.8) (3 units/mg protein, lyophilised powder) were purchased from Sigma.
(§3) Compounds were evaluated in 100 mM phosphate buffer pH 8.0 at 30 °C, using acetylthiocholine and butyrylthiocholine (0.4 mM) as substrates, respectively. In both cases, 5,5-dithio-bis(2-nitrobenzoic) acid (DTNB, Ellman’s reagent, 0.2 mM) was used and the values of IC50 were calculated by UV spectroscopy from the absorbance changes at 412 nm. Experiments were performed in triplicate.

[3] = Oxygen radical absorbance capacity assay (ORAC-FL); conditions: pH 7.4
Experimental: The ORAC-FL method of Ou et al.[37], partially modified by Dávalos et al.[38], was followed, using a FLUOstar Optima (BMG Labtechnologies GmbH, Offenburg, Germany) with 485 excitation and 520 emission filters. 2,2′-Azobis-(amidinopropane) dihydrochloride (AAPH), (±)-6-hydroxy-2,5,7,8-tetramethylchromane-2-carboxylic acid (trolox) and fluorescein (FL) were purchased from Sigma-Aldrich. The reaction was carried out in 75 mM phosphate buffer (pH 7.4) and the final reaction mixture was 200 µL. […] The mixture was pre-incubated for 30 min at 37 °C and then AAPH solution (25 µL, 240 mM) was added rapidly using a multichannel pipette. The microplate was immediately placed in the reader and the fluorescence was recorded every 90 s. for 90 min. The microplate was automatically shaken prior to each reading. Samples were measured at four different concentrations (10^−1 µM). A blank (FL + AAPH in phosphate buffer) instead of the sample solution and four calibration solutions using trolox (10^−1 µM) was also used in each assay. All of the reaction mixtures were prepared in duplicate and at least three independent assays were performed for each sample. Raw data were exported from the Fluostar optima Software to an Excel sheet for further calculations. Antioxidant curves (fluorescence vs. time) were represented and the area under the curve (AUC) is calculated as: AUC =f1/f0+fi/f0+ … +f34/f0+ (f35/f0) where fo = initial fluorescence reading at 0 min and fi = fluorescence reading at time i. The net AUC is obtained by subtracting the AUC of the blank from that of a sample. The relative Trolox equivalent ORAC value is calculated as: Relative ORAC value =[(AUC sample - AUC blank)/(AUCT rolox - AUC blank)](molarity of trolox/molarity of sample)

BuChE from human serum = molecular target: T3, BuChE from human serum (Homo sapiens, UniProt P06276); test: In vitro BuChE inhibition assay (Ellman); assay type: biochemical; conditions: mean ± SEM, 3 experiments, butyrylthiocholine substrate
T3 construct: BuChE from human serum (EC 3.1.1.8); purchased Sigma; host or cells: human serum (tissue-derived)
Experimental: as §2, §3

BuChE = molecular target: T4, BuChE (Homo sapiens, UniProt P06276); test: Kinetic study of BuChE inhibition (Lineweaver-Burk plots); assay type: biochemical; design: key to Type of Inhibition (BuChE): M: mixed
T4 construct: BuChE from human serum (EC 3.1.1.8); purchased Sigma; host or cells: human serum (tissue-derived)
Experimental: To investigate the mechanism of action of the compounds on AChE or BuChE, a kinetic analysis was performed. The experiments were carried out using combinations of four substrate concentrations and three inhibitor concentrations. Double-reciprocal Lineweaver–Burk plots of the data obtained, in which each point is the mean of three different experiments, were analysed.
Competitive inhibitors have the same y-intercept as uninhibited enzymes (since Vmax is unaffected by competitive inhibitors the inverse of Vmax also doesn’t change), but there are different slopes and x-intercepts. Non-competitive inhibition produces plots with the same x-intercept as uninhibited enzyme (Km is unaffected) but different slopes and y-intercepts. Uncompetitive inhibition causes different intercepts on both the y- and x-axes, but the same slope. Mixed inhibitors cause intersects above or below the x-axes.
The Ki, values were determined by fitting the kinetic data to a competitive, non-competitive, or mixed inhibition model by nonlinear regression analysis using GraphPad Prism[35].

Raw 264.7 cells [4] = test: Cell viability (MTT) of Raw 264.7 cells; assay type: cell-based
Experimental: as §1

Raw 264.7 cells [5] = test: Nitrite determination (Griess) in LPS-stimulated Raw 264.7 cells; assay type: cell-based, murine; conditions: LPS 0.4 µg/mL, 24 h
Experimental: The content of nitrite, one of the end-products of NO oxidation, was monitored by a procedure based on the diazotidation of nitrite by sulphanilic acid (Griess reaction). Twenty-four hours after the incubation of Raw 264.7 cells with 0.4 µg/mL of LPS, 50 µL of sample aliquots were mixed with 50 µL of Griess reagent in 96-well plates and incubated at room temperature for 15 min. The absorbance (520 nm) of the mixture was measured on a microplate reader. The concentration of nitrite was calculated with the linear equation derived from the standard curve generated by known concentrations of sodium nitrite.

[6] = 10 µM compound added 1 h prior to 5 µM Aβ

T2 sequence (P22303 32-617 isoform P22303-2 limits assumed): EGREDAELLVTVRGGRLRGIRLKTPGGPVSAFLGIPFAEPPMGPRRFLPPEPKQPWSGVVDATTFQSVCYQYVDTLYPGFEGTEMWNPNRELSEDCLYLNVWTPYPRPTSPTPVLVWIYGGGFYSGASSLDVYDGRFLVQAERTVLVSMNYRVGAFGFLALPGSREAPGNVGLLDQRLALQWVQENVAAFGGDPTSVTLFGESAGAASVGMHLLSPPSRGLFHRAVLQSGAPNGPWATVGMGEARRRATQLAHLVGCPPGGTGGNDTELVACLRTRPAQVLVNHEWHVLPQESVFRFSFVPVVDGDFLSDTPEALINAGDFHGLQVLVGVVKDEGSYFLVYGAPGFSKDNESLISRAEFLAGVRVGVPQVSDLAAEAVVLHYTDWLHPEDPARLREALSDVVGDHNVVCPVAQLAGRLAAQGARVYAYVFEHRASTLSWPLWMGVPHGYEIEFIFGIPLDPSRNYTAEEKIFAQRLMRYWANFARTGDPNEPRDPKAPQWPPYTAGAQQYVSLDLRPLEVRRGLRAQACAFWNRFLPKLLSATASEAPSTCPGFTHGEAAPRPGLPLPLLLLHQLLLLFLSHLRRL
T3 sequence (P06276 29-602): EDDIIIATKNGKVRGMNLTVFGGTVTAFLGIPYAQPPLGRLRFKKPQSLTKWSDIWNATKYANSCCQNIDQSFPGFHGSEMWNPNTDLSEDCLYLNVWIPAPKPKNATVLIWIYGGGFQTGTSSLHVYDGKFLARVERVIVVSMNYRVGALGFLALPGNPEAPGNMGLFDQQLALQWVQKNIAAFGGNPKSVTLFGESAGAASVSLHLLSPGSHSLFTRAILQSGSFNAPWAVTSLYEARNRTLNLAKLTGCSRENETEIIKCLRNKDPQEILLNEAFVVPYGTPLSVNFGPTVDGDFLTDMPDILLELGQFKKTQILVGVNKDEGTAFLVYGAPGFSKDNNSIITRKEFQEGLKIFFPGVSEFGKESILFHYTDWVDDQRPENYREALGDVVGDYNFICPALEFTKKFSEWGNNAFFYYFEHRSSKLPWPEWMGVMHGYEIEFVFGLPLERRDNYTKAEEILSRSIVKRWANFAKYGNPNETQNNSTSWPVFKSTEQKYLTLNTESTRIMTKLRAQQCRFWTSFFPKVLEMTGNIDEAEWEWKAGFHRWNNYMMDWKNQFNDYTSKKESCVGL
T4 sequence (P06276 29-602): as above
T1 sequence (P56817 46-501): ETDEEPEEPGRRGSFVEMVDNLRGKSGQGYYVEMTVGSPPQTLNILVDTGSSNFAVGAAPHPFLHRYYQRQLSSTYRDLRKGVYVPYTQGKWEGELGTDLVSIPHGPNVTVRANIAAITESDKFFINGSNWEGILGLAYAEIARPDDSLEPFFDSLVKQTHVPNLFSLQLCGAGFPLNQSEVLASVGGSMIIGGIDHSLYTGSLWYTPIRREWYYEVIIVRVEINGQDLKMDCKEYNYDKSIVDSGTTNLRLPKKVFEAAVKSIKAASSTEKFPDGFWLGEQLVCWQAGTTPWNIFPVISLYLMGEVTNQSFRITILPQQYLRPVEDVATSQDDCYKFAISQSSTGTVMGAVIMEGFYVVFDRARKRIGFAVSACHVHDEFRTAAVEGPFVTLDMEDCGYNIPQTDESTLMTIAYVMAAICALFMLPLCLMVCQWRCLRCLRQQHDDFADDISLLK

Clc1cccc(Cn2nc(OCc3ccccc3)c3cc(NCCCN4CCCCC4)ccc32)c1Cl [Compound 2]
Aβ-induced death of SH-SY5Y cells ([1]; 5 µM compound added 1 h prior to 5 µM Aβ): able to prevent cell death
IC50 (BACE1): 3.2 ± 0.2 µM
inhibition at 10 µM [2]: 27%
IC50 [2]: > 10 µM
ORAC (Oxygen Radical Absorbance Capacity) [3]: 0.7 ± 0.1 μmol of Trolox equivalents/μmol of tested compound
IC50 (BuChE from human serum): 0.4 ± 0.04 µM
Type of Inhibition (BuChE) (BuChE): M
Cytotoxicity on Raw 264.7 cells viability (Raw 264.7 cells [4]; 10 µM): show cytotoxicity

c1ccc(Cn2nc(OCc3cccc4ccccc34)c3cc(NCCCN4CCCCC4)ccc32)cc1 [Compound 1]
Aβ-induced death of SH-SY5Y cells [1, 6]: significantly reduced cell death
IC50 (BACE1): 2.7 ± 0.1 µM
inhibition at 10 µM [2]: 23%
IC50 [2]: > 10 µM
ORAC (Oxygen Radical Absorbance Capacity) [3]: 1.1 ± 0.1 μmol of Trolox equivalents/μmol of tested compound
IC50 (BuChE from human serum): 3.2 ± 0.5 µM
Type of Inhibition (BuChE) (BuChE): M
Cytotoxicity on Raw 264.7 cells viability (Raw 264.7 cells [4]; 10 µM): show cytotoxicity

Clc1ccc(Cn2nc(OCc3cccc4ccccc34)c3cc(NCCCN4CCCCC4)ccc32)cc1Cl [Compound 3]
Aβ-induced death of SH-SY5Y cells [1, 6]: significantly reduced cell death
IC50 (BACE1): 2.1 ± 0.2 µM
inhibition at 10 µM [2]: 38%
IC50 [2]: > 10 µM
ORAC (Oxygen Radical Absorbance Capacity) [3]: 0.6 ± 0.1 μmol of Trolox equivalents/μmol of tested compound
IC50 (BuChE from human serum): 0.17 ± 0.05 µM
LPS-induced NO production (extracellular nitrite) (Raw 264.7 cells [5]; 10 µM compound): able to attenuate LPS-induced NO production
Type of Inhibition (BuChE) (BuChE): M
Cytotoxicity on Raw 264.7 cells viability (Raw 264.7 cells [4]; 10 µM): did not show any significant cytotoxic effect

c1ccc2cc(COc3nn(Cc4ccc5ccccc5c4)c4ccc(NCCCN5CCCCC5)cc34)ccc2c1 [Compound 6]
Aβ-induced death of SH-SY5Y cells [1, 6]: significantly reduced cell death
IC50 (BACE1): 3.4 ± 0.2 µM
IC50 [2]: 9 ± 1 µM
ORAC (Oxygen Radical Absorbance Capacity) [3]: 0 μmol of Trolox equivalents/μmol of tested compound
IC50 (BuChE from human serum): 3.7 ± 0.3 µM
LPS-induced NO production (extracellular nitrite) (Raw 264.7 cells [5]; 10 µM compound): able to attenuate LPS-induced NO production
LPS-induced NO production (extracellular nitrite) (Raw 264.7 cells [5]; 20, 30 and 40 µM compound): inhibited NO production
Type of Inhibition (BuChE) (BuChE): M
Cytotoxicity on Raw 264.7 cells viability (Raw 264.7 cells [4]; 10, 20, 30, 40 µM): did not show any significant cytotoxic effect
